Source: the NIST ThermoML archive (doi:10.1021/acs.jced.5b00903)

Legend:
[1] = surface light scattering
[2] = xn = mol fraction of the nth substance listed; conditions: surface light scattering

CCCCCO [pentan-1-ol]
[1]
Conditions	surface tension liquid-gas [mN/m]
298.15 K	25.29
303.15 K	24.87
308.15 K	24.46
313.15 K	24.05
318.15 K	23.65
323.15 K	23.21

CCCCCCC [heptane]
[1]
Conditions	surface tension liquid-gas [mN/m]
293.15 K	20.12
298.15 K	19.69
303.15 K	19.13
308.15 K	18.67
313.15 K	18.1
318.15 K	17.7

CC(C)CC(C)(C)C [2,2,4-trimethylpentane]
[1]
Conditions	surface tension liquid-gas [mN/m]
288.15 K	19.14
298.15 K	18.3
303.15 K	17.9
308.15 K	17.43
313.15 K	17.09
318.15 K	16.56
323.15 K	16.2

CCCCCCO [hexan-1-ol]
[1]
Conditions	surface tension liquid-gas [mN/m]
298.15 K	25.56
303.15 K	24.95
308.15 K	24.65
313.15 K	23.93
318.15 K	23.58
323.15 K	23.21

CCO [ethanol]
[1]
Conditions	surface tension liquid-gas [mN/m]
288.15 K	22.72
293.15 K	22.31
298.15 K	21.85
303.15 K	21.41
308.15 K	21.04
313.15 K	20.62
318.15 K	20.29

CCCCCCCO [heptan-1-ol]
[1]
Conditions	surface tension liquid-gas [mN/m]
298.15 K	26.46
303.15 K	25.93
308.15 K	25.43
313.15 K	24.95
318.15 K	24.55
323.15 K	24.03

CCCCCCC [heptane] + CCO
surface tension liquid-gas [mN/m], [2]
Conditions	x1 = 0.0481	x1 = 0.1018	x1 = 0.1676	x1 = 0.2314	x1 = 0.3171	x1 = 0.4111	x1 = 0.5123	x1 = 0.6417	x1 = 0.7983	x1 = 1
293.15 K	21.78	21.27	20.93	20.74	20.53	20.36	20.25	20.2	20.17	20.12
298.15 K	21.3	20.77	20.41	20.22	20.02	19.85	19.75	19.72	19.71	19.69
303.15 K	20.83	20.27	19.89	19.7	19.48	19.31	19.2	19.16	19.15	19.13
308.15 K	20.43	19.84	19.44	19.24	19.02	18.83	18.72	18.69	18.68	18.67
313.15 K	20	19.39	18.98	18.76	18.53	18.33	18.2	18.16	18.13	18.1
318.15 K	19.64	19.01	18.58	18.36	18.12	17.91	17.79	17.75	17.73	17.7

CCCO [propan-1-ol]
[1]
Conditions	surface tension liquid-gas [mN/m]
298.15 K	23.31
303.15 K	22.9
308.15 K	22.52
313.15 K	22.1
318.15 K	21.68
323.15 K	21.27
